Data reported in article PMC12775819, “Optimizing PSMA-617-based inhibitors through charged linker modifications: Insights into structure-activity relationships” (Theranostics, 2026).
Non-standard residues stand in square brackets, D forms with d. Residues, ends and D or L forms follow the SMILES beside them. *: point of attachment. DOTA = O=C(O)CN1CCN(CC(=O)O)CCN(CC(=O)*)CCN(CC(=O)O)CC1; EuK = O=C(O)CC[C@H](NC(=O)N[C@@H](CCCCN*)C(=O)O)C(=O)O; 2Nal = N[C@@H](Cc1ccc2ccccc2c1)C(=O)O; Trx = NC[C@H]1CC[C@H](C(=O)O)CC1

Key:
[1] = Dynamic small-animal PET imaging (0 - 60 min); settings: male, BALB/c nu/nu, mouse, tumor (LNCaP xenograft), iv, 500 pmol, total radioactivity
[2] = Static small-animal PET imaging 1 h and 2 h p.i.; settings: male, BALB/c nu/nu, mouse, iv, 500 pmol, total radioactivity; for SUV at 1 h / SUV at 2 h: 68Ga-labeled, 0.5 nmol i.v., n = 1, SD from VOIs; for SUV at 1 h: static PET 1 h p.i.; for SUV at 2 h: static PET 2 h p.i.
[3] = tumor (LNCaP xenograft), SUV tumor

## O=C(O)CC[C@H](NC(=O)N[C@@H](CCCCNC(=O)[C@H](Cc1ccc2ccccc2c1)NC(=O)[C@H]1CC[C@H](CNC(=O)[C@H](CCC(=O)O)NC(=O)[C@H](Cc2c[nH]cn2)NC(=O)[C@H](CCC(=O)O)NC(=O)[C@H](Cc2c[nH]cn2)NC(=O)[C@H](CCC(=O)O)NC(=O)[C@H](Cc2c[nH]cn2)NC(=O)CN2CCN(CC(=O)O)CCN(CC(=O)O)CCN(CC(=O)O)CC2)CC1)C(=O)O)C(=O)O [[^68Ga]Ga-PS4, metal not drawn] ({DOTA}-HEHEHE[Trx][2Nal]-EuK)
[1]
  SUV at 1 h: 1.07 SUV
[2]; kidneys, SUV kidneys
  SUV at 1 h: 3.81 ± 0.15 SUV
  SUV at 2 h: 2.77 ± 0.2 SUV
[2]; [3]
  SUV at 1 h: 1.15 ± 0.04 SUV
  SUV at 2 h: 1.07 ± 0.09 SUV
[2]; tumor / muscle
  tissue to tissue ratio at 1 h: 10.5 ± 0.2
